Results published in PubChem BioAssay AID449762 (Southern Research Specialized Biocontainment Screening …, 2010).
Results filed as inconclusive are left out.

Tested on: M. tuberculosis H37Rv growth inhibition, 7H9 media
Assay: M. tuberculosis growth inhibition, HTS (AID 449762);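 further: bacterial growth assessed after seven days of incubation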
Details: for IC90: measured here: IC90 growth inhibition

| SMILES | IC50 | IC90 |
| --- | --- | --- |
| CCN(CC)c1ccc(/C=C2\SC(=O)N(C(C)C)C2=O)o1 | 1.34 µM | 4.79 µM |
| NC(=O)c1cccc(-c2cc(Nc3ccc(OC(F)(F)F)cc3)ncn2)c1 | 8.46 µM | 18.4 µM |
| CNC(=S)/N=C/NOCc1c(Cl)cccc1Cl | 5.44 µM | 12.9 µM |
| Cc1cccc(CSc2nc3c(c(-c4cccs4)c2C#N)CN(C)CC3)c1 | – | > 100 µM |
| COc1ccc(Nc2nc(N)c([N+](=O)[O-])c(NC3CCCCC3)n2)cc1 | 9.76 µM | 18.8 µM |
| CCCCCCCNC(=O)C1(CC2CC(c3cccc(Br)c3)=NO2)CCNCC1 (stereo not given) | 42 µM | 53.1 µM |
| CCc1cccc2c(C(=O)CCl)c[nH]c12 | 0.78 µM | 3.18 µM |
| COc1ccccc1NC(=O)C(C)OC(=O)/C=C/c1ccc2ccccc2n1 (stereo not given) | 3.82 µM | 11.4 µM |
| COC(=O)c1ccc(-n2cnc3ccccc32)nc1 | 13.9 µM | 45.1 µM |
| COc1ccccc1C1CC(c2c(-c3ccccc3)c3cc(Cl)ccc3[nH]c2=O)=NN1S(C)(=O)=O (stereo not given) | 93.7 µM | > 100 µM |
| Cc1ccc(-c2csc3nc4c5ccccc5c(NCCCN5CCOCC5)nn4c(=O)c23)cc1 | 24.7 µM | 27.7 µM |
| CCCc1ccc(C2=Nn3c(nnc3C(C)C)SC2)cc1 | 18.7 µM | 29.7 µM |
| Cn1ccc(=Nc2ccc(NC(=O)c3ccc(N=c4ccn(C)c5ccc([N+](=O)[O-])cc45)cc3)cc2)cc1 | < 0.2 µM | < 0.2 µM |
| CC(C)NCC(O)c1ccc(O)c(O)c1 (stereo not given) | – | > 100 µM |
| CCOc1cc2c(cc1OCC)-n1cccc1C(c1ccc(C(C)C)cc1)NC2 (stereo not given) | 20.6 µM | 29.6 µM |
| Cc1c(NC(=O)c2ccc([N+](=O)[O-])o2)cccc1-c1nc2ncccc2o1 | 8.36 µM | > 25 µM |
| O=C(CCl)Nc1sccc1C(=O)c1ccccc1 | < 0.2 µM | 1.22 µM |
| Cc1cc(C)c2nc(-c3ccncc3)cc(C(=O)N3CCN(Cc4ccccc4Cl)CC3)c2c1 | 23.2 µM | 26.1 µM |
| CCc1ccc2[nH]c(=O)c(CN(CCCN3CCOCC3)C(=O)Nc3cccc(Cl)c3)cc2c1 | 24.1 µM | 30.4 µM |
| CCOC(=O)C1CCCc2c1[nH]c1c(C(N)=O)cccc21 (stereo not given) | 4.13 µM | 13.2 µM |
| C/C(=N\NC(=S)NCC(C)(C)C)c1cc(F)cc(F)c1O | 1.22 µM | 8.86 µM |
| Cc1nn(-c2ccccc2)c(N2CCCC2)c1/C=N/Nc1ccc(S(N)(=O)=O)cc1[N+](=O)[O-] | – | > 100 µM |

| SMILES | IC50 | IC90 |
| --- | --- | --- |
| CCN(C[C@H]1N[C@@](Cc2ccccc2)(C(=O)OC)[C@H]2C(=O)N(Cc3ccccc3)C(=O)[C@@H]12)C(=O)Nc1ccc(C(F)(F)F)cc1 | 10.4 µM | 11.4 µM |
| O=C(CCn1c(=O)c2cccn2c2cccnc21)N1CCN(c2cccc(Cl)c2)CC1 | 30.6 µM | 41.8 µM |
| COC(=O)c1ccc(Cn2cc(C(F)(F)F)cc([N+](=O)[O-])c2=O)cc1 | < 0.2 µM | 23.7 µM |
| CC(C)(C)OC(=O)NNc1c2ccccc2nc2ccccc12 | 22.8 µM | 25.7 µM |
| COc1ccccc1/C(C)=N/NC(=S)NCc1ccccc1 | 23.3 µM | 26.6 µM |
| Oc1ccc(/C=N/NC(=S)N2CCOCC2)cc1 | 4.2 µM | 6.19 µM |
| Cc1ccccc1-n1sc2cc(F)ccc2c1=O | 18.6 µM | 22.5 µM |
| C#CCn1c(=NC(=O)c2cc(Cl)sc2Cl)sc2cc(S(N)(=O)=O)ccc21 | 3.37 µM | > 100 µM |
| CCN(CC)CCN(C(=O)c1ccc(S(=O)(=O)N2CCCC2)cc1)c1nc2cc(C)cc(C)c2s1 | 10.1 µM | 13.2 µM |
| CCCC(=O)Nc1ccc(C(=O)/C=C/c2ccc(SC)cc2)cc1 | 22.9 µM | 37.1 µM |
| CCCCOC(=O)c1c(C)oc2ccc(NS(=O)(=O)c3ccc4c5c(cccc35)C(=O)N4)cc12 | 78.7 µM | > 100 µM |
| Cc1cc2c(N=O)c(NO)ccc2[nH]1 | 10.3 µM | 15 µM |
| OC(CNCCc1ccc(C(F)(F)F)cc1)COC(c1ccccc1)c1ccccc1 (stereo not given) | 16.7 µM | 21.2 µM |
| NNC(=S)Nc1ccccc1Cl | 24.4 µM | 27.8 µM |
| CCc1ccc2nc(N(CCCN(C)C)C(=O)c3ccc(S(=O)(=O)N4CCCc5ccccc54)cc3)sc2c1 | 28.1 µM | 33.9 µM |
| Cc1ccc2c(c1)c(C1=c3ccccc3=NC1=O)c(O)n2C | 1.17 µM | 3.07 µM |
| Cc1c(Cl)cccc1-c1ccc(CNCc2ccccn2)o1 | 0.7 µM | 4.03 µM |
| CCOC(=O)N1CCN(C(=O)CSc2nnc(-c3ccc(Cl)s3)o2)CC1 | 13.1 µM | 34.1 µM |
| O=c1[nH]c(CSc2cccc[n+]2[O-])nc2ccccc12 | 96.4 µM | > 100 µM |
| CC(C)(C)NC(=O)C(=O)NNC(=O)c1ccc(C(C)(C)C)cc1 | 5.71 µM | 17.6 µM |
| CCCC(/C=C/c1ccc(OC(C)=O)cc1)=C1/c2ccccc2C(=O)N1c1ccccc1 | 8.07 µM | 16.1 µM |
| Nc1c(-c2ccccn2)cnn1-c1nc(-c2ccc(F)cc2)cs1 | 12.6 µM | > 100 µM |

| SMILES | IC50 | IC90 |
| --- | --- | --- |
| Cc1ccc(C(=O)C[n+]2cc(-c3ccc(C)cc3)n3c2CCCCC3)cc1 | 15.3 µM | 19.8 µM |
| Nc1ccc(S(=O)(=O)Nc2cnc3ccccc3n2)cc1 | 26.4 µM | 52 µM |
| Cc1cccc(N2CCN(CC(=O)Nc3nccs3)CC2)c1C | 16 µM | 58.5 µM |
| CCc1ccc2c(c1)C1(C(=O)N2)N2CCCC2C(C(=O)c2ccc3ccccc3c2)C12C(=O)Nc1ccccc12 (stereo not given) | 13.1 µM | 30.9 µM |
| CCN1c2ccccc2N(C)C1(C)c1ccccc1 (stereo not given) | 6 µM | 6.79 µM |
| Cc1ccc(C)c(NC(CC(=O)c2ccccc2)C(=O)OCC(=O)c2cccs2)c1 (stereo not given) | 5.16 µM | 7.68 µM |
| COc1ccc(C)cc1Nc1n[n+](-c2ccccc2)c(-c2c(Cl)cccc2Cl)s1 | 19.6 µM | 25.9 µM |
| c1ccc(-c2n[nH]c(-c3ccccn3)n2)cc1 | 12.6 µM | 19.3 µM |
| OCC1(Cc2cccc(Cl)c2)CCCN(Cc2ccc3cc(F)ccc3n2)C1 (stereo not given) | 45.8 µM | 52.1 µM |
| CCOc1ccc(NCc2cccn2-c2nnc(N3CCC(C(=O)NCCCN4C(C)CCCC4C)CC3)s2)cc1 (stereo not given) | 71.9 µM | 90.9 µM |
| CN(C)c1ccc(/C=C2\N=C(C(C)(C)C)OC2=O)cc1 | 14.4 µM | 34.5 µM |
| CSc1ccccc1OCc1cc(C(=O)N2CCC(Oc3cccnc3)CC2)no1 | 24 µM | 27.6 µM |
| N#CCn1c(CCl)nc2ccccc2c1=O | 5.21 µM | 17.4 µM |
| COc1cccc(-c2cnc(NCc3cc(Cl)ccc3O)n2C)c1 | 19.1 µM | 22.9 µM |
| Oc1ccc(C[C@H]2CNCCN2CCCCC2CCCCC2)cc1 | 31.5 µM | 59.2 µM |
| Cc1cc(C)nc(-n2nc(C)cc2NC(=O)CN2CCC(C)CC2)n1 | 6.86 µM | 16.9 µM |
| CCc1cc(OCCCCNCc2ccccc2)ccc1Cl | 26.3 µM | 30.4 µM |
| CN(C)CCCN(C(=O)c1cc(-c2cccs2)nc2ccccc12)c1nc2ccc(F)cc2s1 | 41 µM | 55.5 µM |
| COc1ccc(C2=NC(=O)/C(=C\c3cc(OC)c(OC)c(OC)c3)O2)cc1 | 5.71 µM | 49.3 µM |
| CN1C(=O)/C(=C/c2cccc(Cl)c2)Sc2ccc(C(=O)N3CCCC3)cc21 | 17.1 µM | 31 µM |
